Like-named read-outs stand apart in the source and are kept apart here.
Key:
Na-GST-2 = target: T1, Na-GST-2 (Necator americanus, UniProt D3U1A6); assay: CDNB-glutathione conjugation, absorbance at […] nm; assay type: biochemical
T1 construct: homodimer; Nu class; glutathione carried over from fermentation
T1 sequence (D3U1A6 1-206): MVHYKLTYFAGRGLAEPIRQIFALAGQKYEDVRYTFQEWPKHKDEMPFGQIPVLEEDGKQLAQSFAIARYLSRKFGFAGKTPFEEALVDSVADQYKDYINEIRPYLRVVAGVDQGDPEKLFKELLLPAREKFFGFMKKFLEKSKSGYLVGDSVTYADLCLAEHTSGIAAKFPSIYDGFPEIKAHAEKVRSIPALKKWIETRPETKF

Na-GST-1 = target: T2, Na-GST-1 (Necator americanus, UniProt D3U1A5); assay: CDNB-glutathione conjugation, absorbance at […] nm; assay type: biochemical
T2 construct: 206 residues ordered; homodimer; Nu class
T2 sequence (D3U1A5 1-206): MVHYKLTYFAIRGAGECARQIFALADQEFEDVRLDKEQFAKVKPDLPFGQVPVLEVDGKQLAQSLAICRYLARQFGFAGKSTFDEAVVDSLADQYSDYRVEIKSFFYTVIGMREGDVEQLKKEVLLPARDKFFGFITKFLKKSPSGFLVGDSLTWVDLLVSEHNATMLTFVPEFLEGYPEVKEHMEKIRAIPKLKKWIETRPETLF

Compound | IC50 (Na-GST-2) | IC50 (Na-GST-1; read-out: Na-GST-1) | IC50 (Na-GST-1)
CCCSc1ccc2nc(NC(=O)OC)[nH]c2c1 [albendazole] | 68 µM | 87 µM | 
[Cl][Sn]([c]1ccccc1)([c]1ccccc1)[c]1ccccc1 [chlorotriphenyltin] | 0.7 µM |  | 22 µM
O=C(C1CCCCC1)N1CC(=O)N2CCc3ccccc3C2C1 (stereo not drawn) [praziquantel] | 3300 µM | > 20000 µM | 

— article PMC1924862, “X-ray structures of Na-GST-1 and Na-GST-2 two glutathione s-transferase from the human hookworm Necator americanus” (BMC Structural Biology, 2007)
